Laboratory results from ChEMBL document CHEMBL3751815, “Sulfonamides incorporating heteropolycyclic scaffolds show potent inhibitory action against carbonic anhydrase isoforms I, II, IX and XII” (Bioorg Med Chem, 2016).

These molecules were tested against Carbonic anhydrase 9 (Homo sapiens, UniProt Q16790) (assay: Inhibition of recombinant human carbonic anhydrase 9 preincubated for 15 mins by stopped-flow CO2 hydration assay).

Compound	Ki
COc1ccc2c(c1)SCc1cn(-c3ccc(S(N)(=O)=O)cc3)nc1-2	7.4 nM
NS(=O)(=O)c1ccc(Nc2ncc3c(n2)-c2ccc(Cl)cc2SC3)cc1	8.7 nM
NS(=O)(=O)c1ccc(-n2cc3c(n2)-c2ccc(Cl)cc2SC3)cc1	6.1 nM
Cc1ccc2c(c1)NCc1cn(-c3ccc(S(N)(=O)=O)cc3)nc1-2	7.7 nM
CN(CC(=O)O)c1ccc2c(c1)-c1cccnc1SC2	67.8 nM
COc1ccc2c(c1)SCc1cnc(Nc3ccc(S(N)(=O)=O)cc3)nc1-2	22.5 nM
COc1ccc2c(c1)SCc1ccc(N(C)CC(=O)O)cc1-2	40.8 nM
Cc1ccc2c(n1)SCc1ccc(N(C)CC(=O)O)cc1-2	92.7 nM
NS(=O)(=O)c1ccc(Nc2ncc3c(n2)-c2ccccc2SC3)cc1	7 nM
COc1ccc2c(c1)SCc1ccc(NCC(=O)O)cc1-2	54.1 nM
NS(=O)(=O)c1ccc(-n2cc3c(n2)-c2ccccc2NC3)cc1	6.3 nM
NS(=O)(=O)c1ccc(Nc2ncc3c(n2)-c2cccnc2SC3)cc1	27.6 nM
